Data: the supplement of paper PMC13207355

How the values were obtained:
Details in all cases: exposure time: 72 h
[1] = test system: E28 (patient-derived glioblastoma stem cells of classical subtype); assay: surviving fraction (nuclei count normalised to DMSO); higher = more cells surviving (less toxic)
[2] = test system: E21 (patient-derived glioblastoma stem cells of mesenchymal subtype); assay: as above
[3] = test system: E57 (patient-derived glioblastoma stem cells of mesenchymal subtype); assay: as above
[4] = test system: E13 (patient-derived glioblastoma stem cells of classical subtype); assay: as above
[5] = test system: E34 (patient-derived glioblastoma stem cells of proneural subtype); assay: as above
[6] = test system: FT3469 (normal neural stem cell line); assay: as above
[7] = test system: E31 (patient-derived glioblastoma stem cells of proneural subtype); assay: as above
[8] = test system: E28; assay: phenotypic distance (Euclidean, principal components) from DMSO controls (arbitrary units); higher = stronger morphological change
[9] = test system: E21; assay: as above
[10] = test system: E57; assay: as above
[11] = test system: E13; assay: as above
[12] = test system: E34; assay: as above
[13] = test system: FT3469; assay: as above
[14] = test system: E31; assay: as above
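For phenotypic distance (Euclidean, principal components) from DMSO controls in this document: cell Painting imaging in 384-well plates, CellProfiler features reduced to at least 20 principal components, Euclidean distance versus same-plate DMSO vehicle wells (0.1% v/v), median over six images per well.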
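For surviving fraction (nuclei count normalised to DMSO) in this document: nuclei counted by high-content imaging of Hoechst-stained cells in laminin-coated 384-well plates, relative to 0.1% DMSO vehicle wells, with staurosporine as cell-death control.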

**Q.** What does the source list for CC(=O)O[C@H]1C[C@H](O[C@H]2[C@@H](O)C[C@H](O[C@H]3[C@@H](O)C[C@H](O[C@H]4CC[C@@]5(C)[C@H](CC[C@@H]6[C@@H]5C[C@@H](O)[C@]5(C)[C@@H](C7=CC(=O)OC7)CC[C@]65O)C4)O[C@@H]3C)O[C@@H]2C)O[C@H](C)[C@H]1O[C@@H]1O[C@H](CO)[C@@H](O)[C@H](O)[C@H]1O [Lanatoside C]?
**A.** surviving fraction ([1]; 4.1 nM): 0.864; surviving fraction ([1]; 12.3 nM): 0.807; surviving fraction ([1]; 37 nM): 0.625; surviving fraction ([1]; 111.1 nM): 0.57; surviving fraction ([1]; 333.3 nM): 0.505; surviving fraction ([1]; 1000 nM): 0.394; surviving fraction ([1]; 3000 nM): 0.449; surviving fraction ([2]; 4.1 nM): 0.829; surviving fraction ([2]; 12.3 nM): 0.52; surviving fraction ([2]; 37 nM): 0.513; surviving fraction ([2]; 111.1 nM): 0.347; surviving fraction ([2]; 333.3 nM): 0.287; surviving fraction ([2]; 1000 nM): 0.214; surviving fraction ([2]; 3000 nM): 0.241; surviving fraction ([3]; 4.1 nM): 1.03; surviving fraction ([3]; 12.3 nM): 0.615; surviving fraction ([3]; 37 nM): 0.371; surviving fraction ([3]; 111.1 nM): 0.238; surviving fraction ([3]; 333.3 nM): 0.217; surviving fraction ([3]; 1000 nM): 0.177; surviving fraction ([3]; 3000 nM): 0.152; surviving fraction ([4]; 4.1 nM): 0.646; surviving fraction ([4]; 12.3 nM): 0.373; surviving fraction ([4]; 37 nM): 0.344; surviving fraction ([4]; 111.1 nM): 0.349; surviving fraction ([4]; 333.3 nM): 0.268; surviving fraction ([4]; 1000 nM): 0.273; surviving fraction ([4]; 3000 nM): 0.245; surviving fraction ([5]; 4.1 nM): 0.887; surviving fraction ([5]; 12.3 nM): 0.769; surviving fraction ([5]; 37 nM): 0.597; surviving fraction ([5]; 111.1 nM): 0.56; surviving fraction ([5]; 333.3 nM): 0.543; surviving fraction ([5]; 1000 nM): 0.397; surviving fraction ([5]; 3000 nM): 0.276; surviving fraction ([6]; 4.1 nM): 0.642; surviving fraction ([6]; 12.3 nM): 0.545; surviving fraction ([6]; 37 nM): 0.622; surviving fraction ([6]; 111.1 nM): 0.554; surviving fraction ([6]; 333.3 nM): 0.66; surviving fraction ([6]; 1000 nM): 0.627; surviving fraction ([6]; 3000 nM): 0.592; surviving fraction ([7]; 4.1 nM): 1.26; surviving fraction ([7]; 12.3 nM): 0.646; surviving fraction ([7]; 37 nM): 0.564; surviving fraction ([7]; 111.1 nM): 0.398; surviving fraction ([7]; 333.3 nM): 0.413; surviving fraction ([7]; 1000 nM): 0.35; surviving fraction ([7]; 3000 nM): 0.326; phenotypic distance ([8]; 4.1 nM): 1.18; phenotypic distance ([8]; 12.3 nM): 1.82; phenotypic distance ([8]; 37 nM): 2.35; phenotypic distance ([8]; 111.1 nM): 3.35; phenotypic distance ([8]; 333.3 nM): 3.21; phenotypic distance ([8]; 1000 nM): 3.17; phenotypic distance ([8]; 3000 nM): 3.73; phenotypic distance ([9]; 4.1 nM): 2.87; phenotypic distance ([9]; 12.3 nM): 3.93; phenotypic distance ([9]; 37 nM): 4.41; phenotypic distance ([9]; 111.1 nM): 6.06; phenotypic distance ([9]; 333.3 nM): 7.08; phenotypic distance ([9]; 1000 nM): 6.66; phenotypic distance ([9]; 3000 nM): 6.83; phenotypic distance ([10]; 4.1 nM): 2.85; phenotypic distance ([10]; 12.3 nM): 4.99; phenotypic distance ([10]; 37 nM): 6.18; phenotypic distance ([10]; 111.1 nM): 7.2; phenotypic distance ([10]; 333.3 nM): 6.8; phenotypic distance ([10]; 1000 nM): 6.87; phenotypic distance ([10]; 3000 nM): 7.11; phenotypic distance ([11]; 4.1 nM): 3.23; phenotypic distance ([11]; 12.3 nM): 4.4; phenotypic distance ([11]; 37 nM): 4.8; phenotypic distance ([11]; 111.1 nM): 5.94; phenotypic distance ([11]; 333.3 nM): 6.29; phenotypic distance ([11]; 1000 nM): 6.53; phenotypic distance ([11]; 3000 nM): 6.35; phenotypic distance ([12]; 4.1 nM): 1.29; phenotypic distance ([12]; 12.3 nM): 2.98; phenotypic distance ([12]; 37 nM): 3.49; phenotypic distance ([12]; 111.1 nM): 4.28; phenotypic distance ([12]; 333.3 nM): 3.87; phenotypic distance ([12]; 1000 nM): 3.82; phenotypic distance ([12]; 3000 nM): 5.11; phenotypic distance ([13]; 4.1 nM): 3.36; phenotypic distance ([13]; 12.3 nM): 3.52; phenotypic distance ([13]; 37 nM): 3.89; phenotypic distance ([13]; 111.1 nM): 3.72; phenotypic distance ([13]; 333.3 nM): 3.47; phenotypic distance ([13]; 1000 nM): 3.7; phenotypic distance ([13]; 3000 nM): 3.74; phenotypic distance ([14]; 4.1 nM): 2.01; phenotypic distance ([14]; 12.3 nM): 3.33; phenotypic distance ([14]; 37 nM): 4.72; phenotypic distance ([14]; 111.1 nM): 5.61; phenotypic distance ([14]; 333.3 nM): 4.79; phenotypic distance ([14]; 1000 nM): 4.62; phenotypic distance ([14]; 3000 nM): 5.53
